Source: patent publication US20260234188A1, “CHEMOKINE-BINDING PEPTIDES” (Oxford University Innovation Limited, priority 2022, published 2026)
Entries after “also recorded” stand apart in the source; their conditions may differ.

tested on: panel of up to 42 human chemokines; assay: Phage-display next generation sequencing screen of overlapping hexadecapeptide libraries, chemokines displayed on streptavidin beads; type: binding; conditions: log2E greater than 5, chemokines named by first part of UniProt Entry Name
Description: FIG. 1. Exemplar results from phage display screens. Phage-display libraries were constructed and analysed as described in (McLaughlin, 2013) (Tonikian, 2007). […] FIG. 1A, CC chemokines against evasin A library. FIG. 1B, CXC chemokines against the evasin B library. FIG. 1C, CXC and CX3C chemokines against the viral chemokine binding protein library. FIG. 1D, CXC chemokines against the chemokine library. […] Identified hexadecapeptides were mapped to the position in the originating protein (x-axis) and to fold enrichment (log 2 E, left y-axis). Regions of interest (ROI) were defined where the cumulative residue log 2 E, (clog 2 E:r, right y-axis) exceeds the 95% upper confidence interval of the median clog 2 E:r for the entire protein (indicated as a horizontal dotted line in each panel). Proteins are referred to by their UniProt ID.
Hexadecapeptides were identified using a phage-display next generation sequencing approach (McLaughlin, 2013). Libraries containing a total of 55662 overlapping peptides (from the tick chemokine binding proteins shown in Tables 3A and 3B, the viral chemokine binding proteins shown in Table 3C, the human chemokines shown in Table 3 E, and the human/viral chemokine receptors and other chemokine-binding proteins shown in Table 3D) were first constructed, and then screened against a panel of up to 42 human chemokines, as shown in Table 3F.

Substance | Chemokines Bound
CR362 (AEIYEYLFFFSFFFLA) | CCL22, CXL11,; also recorded: CXL13
CR498 (AFLWGIFPTVIFSYFY) | CCL17, CCL18,; also recorded: CCL19, CCL20,; also recorded: CCL25, CXL13
CR2290 (AWFLPIMYSIICFVGL) | CCL20, CCL22, and CCL25, CCL28, and X3CL1, CXL10, and CXL11, SDF1, and CXL13, CXL14, and IL8
CR2291 (AWFLPIMYSIISFVGL) | CCL1, CCL11, and IL8
CR2301 (AWLPYYIGISIDSFIL) | CCL17, CCL19,; also recorded: CCL20
CR2340 (AYDLFIGIKIVYCFLW) | CCL15, CCL17, and CCL18, CCL19, and CCL20, CCL22, and CCL25, CCL28, and X3CL1, CXL10, and CXL11, SDF1, and CXL13, CXL14, and IL8
CR2439 (CALVTLITSLFGSIFK) | CCL17, CCL18, and CCL19, CCL20, and CXL10, SDF1, and CXL13, CXL14, and IL8
CR2524 (CFLWGIFPTVIFSYFY) | CCL22, CCL25, and CXL13, CXL14, and IL8
CR2553 (CGIITSVLAWVTAILA) | CCL11, CCL2, and CCL20, CCL22, and CCL28, CCL8, and X3CL1, CXL10, and SDF1, CXL14, and IL8
CR2586 (CILVWLLAFCVSLPDT) | CCL20, CCL28,; also recorded: CXL10, CXL11,; also recorded: CXL14
CR3107 (DFAAILLYIDDFSAYF) | CCL18, X3CL1,; also recorded: CXL13
CR3135 (DFLCKLLNMIFSISLY) | CCL17, CCL22,; also recorded: CCL25, CCL28,; also recorded: CXL11, IL8
CR3146 (DFLSKLLNMIFSISLY) | CCL17, CCL18,; also recorded: CCL19, CCL2,; also recorded: CCL20, CXL14
CR3161 (DFSAILLYIDDFSAYF) | CCL17, CCL18,; also recorded: X3CL1, CXL10,; also recorded: SDF1, CXL13,; also recorded: CXL14
CR3302 (DLFIGIKIVYSFLWGI) | CCL1, CCL17,; also recorded: CCL18, CCL20,; also recorded: CCL22, CCL28,; also recorded: CXL10, CXL11,; also recorded: CXL13, IL8
CR3373 (DLTNWKLLAEIYEYLF) | CCL2, CCL22, and CCL28, CXL10, and CXL11, SDF1, and CXL13, CXL14, and IL8
CR3716 (DVYLLNLAISDLLFVF) | CCL11, CCL2,; also recorded: CCL8, CXL11
CR3800 (DYSIILMFLSDFSFIF) | CCL1, CCL11, and CCL15, CCL18, and CCL28, X3CL1, and CXL10, CXL11, and SDF1, CXL13, and IL8

Substance | Chemokines Bound
CR4135 (EIYEYLFFFSFFFLAL) | CCL20, CCL25,; also recorded: CXL11, CXL13
CR4205 (ELFLAVKIVFSFIWGV) | CCL11, CCL17,; also recorded: CCL18, CCL19,; also recorded: CCL2, CCL20,; also recorded: CCL22, CCL25,; also recorded: CCL28, X3CL1,; also recorded: CXL10, CXL11,; also recorded: SDF1, CXL13,; also recorded: CXL14, IL8
CR4463 (ESLFAALVTLITSLFG) | CCL1, CCL17,; also recorded: CCL18, CCL2,; also recorded: X3CL1, CXL10,; also recorded: CXL11, IL8
CR4465 (ESLFSALVTLITSLFG) | CCL18, CCL8,; also recorded: CXL10
CR4712 (FAIVVAYFLSWGPYNF) | CCL18, CCL19,; also recorded: CCL20, CCL22,; also recorded: CCL25, SDF1
CR4753 (FAQLVYFIYHAVASYS) | CCL2, CXL13, and IL8
CR4754 (FARAIDIIYSLITSAN) | CCL18, CCL28,; also recorded: X3CL1
CR4756 (FASDFVLMWAVFFMTV) | CCL17, X3CL1,; also recorded: CXL10
CR4760 (FASFYLLDFILALVGN) | CCL22, CXL10,; also recorded: CXL11, SDF1,; also recorded: CXL13, IL8
CR4802 (FCALVTLITSLFGSIF) | CCL11, CCL17,; also recorded: CCL18, CCL19,; also recorded: CCL20, CCL22,; also recorded: CCL25, CCL28,; also recorded: CCL8, X3CL1,; also recorded: CXL10, CXL11,; also recorded: SDF1, CXL13,; also recorded: CXL14, IL8
CR4845 (FDFMILNLSFCDLFIC) | X3CL1, CXL13, and IL8
CR5021 (FFSGMLLLLSISIDRY) | CCL18, CCL19,; also recorded: CCL20, CCL28
CR5027 (FFSQLVYFIYHAVSSY) | CCL17, CCL18, and CCL20, CXL10, and CXL11, SDF1, and IL8
CR5055 (FFYYLYVYLDIFSVVA) | CCL18, CCL2, and CCL22, CXL10, and SDF1
CR5077 (FGFFIPLMFMIFSYTF) | CCL18, X3CL1,; also recorded: CXL14
CR5103 (FGLLGNILVVITFAFY) | CCL19, CCL20,; also recorded: CCL22, CCL28,; also recorded: CXL10, SDF1,; also recorded: CXL14
CR5170 (FGVITSIVTWGLAVLA) | X3CL1, CXL10, and IL8
CR5171 (FGVVTSVITWLVAVFA) | CCL11, CCL17, and CCL18, CCL2, and CCL20, CCL22, and CCL25, CCL28, and X3CL1, CXL10, and CXL11, SDF1, and CXL13, CXL14, and IL8

same assay, conditions: log2E greater than 5, chemokines named by first part of UniProt entry name, C5a (control) binders excluded

Substance | Chemokines Bound
CK576 (CADPSESWVQEYVYDL) | CCL17, CCL5,; also recorded: CXL10
CK1301 (FIADYFETSSQCSKPS) | CCL20, CXL10,; also recorded: CXL14, IL8
CK1408 (FSRCCFSFAEQEIPLR) | CCL1, CCL2,; also recorded: CCL8, CXL14
CK1445 (FVVDYYETSSLCSQPA) | CCL19, CCL2, and X3CL1, SDF1, and IL8
CK1982 (IFKTIVAKEICADPKQ) | CCL1, CCL22,; also recorded: CCL5, X3CL1,; also recorded: CXL10, CXL13
CK2307 (IVRNFHYLLIKDGSRV) | CCL19, CCL20,; also recorded: CCL22
CK3115 (LLESYFETNSECSKPG) | CCL19, CCL22,; also recorded: X3CL1, CXL14
CK3274 (LRCVCLQTTQGVHPKM) | X3CL1, CXL10,; also recorded: CXL11
CK3750 (PEWVNTPSTCCLKYYE) | CCL18, CCL19,; also recorded: CCL22, X3CL1
CK4643 (RITNIQCPKEAVIFKT) | CCL1, CCL19,; also recorded: CCL20
CK6066 (VCADPSESWVQEYVYD) | CCL19, CCL28,; also recorded: X3CL1, IL8
CR1003 (ALAFIYVLMFLANAIG) | CCL17, CCL18, and CCL19, CCL20, and CCL28, X3CL1, and CXL10, SDF1, and IL8
CR1004 (ALAFIYVLMFLCNAIG) | CCL17, CCL18,; also recorded: CCL19, CCL20,; also recorded: CXL10, CXL14
CR1005 (ALAFIYVLMFLSNAIG) | CCL19, CCL2,; also recorded: CCL20, CCL28,; also recorded: CXL14
CR1124 (ALIQMLEICIGFVVPF) | CCL18, CCL19,; also recorded: CCL20
CR1325 (ALYSLLFLLGLLGNGA) | CCL17, CCL19,; also recorded: CCL2, CCL20,; also recorded: CCL22, CXL11,; also recorded: CXL14
CR1475 (ANVTFTGLIAAFSWFM) | CCL2, CCL22,; also recorded: CXL11, CXL13
CR1802 (ASMILESLFAALVTLI) | CCL17, CCL18,; also recorded: CCL2, CCL20,; also recorded: CCL22, CCL25,; also recorded: CCL28, CXL10
CR1923 (ATFKILISIVWGVMPV) | CCL18, CCL28,; also recorded: X3CL1, CXL10,; also recorded: CXL11, SDF1,; also recorded: CXL13, IL8
CR2028 (ATSWVVIFWILAALMG) | CCL17, CCL18,; also recorded: CCL19, CCL20,; also recorded: CCL28, SDF1,; also recorded: CXL13, CXL14
CR2051 (ATYMLLVLYYAMLPLM) | CCL20, CCL22,; also recorded: CCL28, X3CL1,; also recorded: CXL10, SDF1,; also recorded: CXL14, IL8
CR2129 (AVFYALLFVFSLLGNS) | CCL15, CCL18, and CCL19, CCL20, and CCL25, CCL28, and SDF1
CR2158 (AVKIVFSFIWGVLPTM) | CCL18, CCL20,; also recorded: SDF1, CXL14
CR2278 (AVWGLSLLFALPDFIF) | CCL18, CCL2,; also recorded: CCL22, CCL28,; also recorded: CXL10, CXL11,; also recorded: SDF1, CXL13,; also recorded: CXL14, IL8
CR2290 (AWFLPIMYSIICFVGL) | CCL1, CCL17,; also recorded: CCL18, CCL19,
